As a reminder, the MIC is the smallest concentration in the dilution series that meets the test's criterion for growth inhibition. For orientation: IC50 means the concentration that gives 50% inhibition. As a reminder, the HC50 is the concentration that lyses half of the red blood cells. A word on the MIC90: it is the lowest concentration that inhibits either 90% of growth or 90% of the strains tested, depending on the study.

In brackets after ≈: the same amount, converted by molar mass. Activity calls are given as the source filed them.

The test system of series [1] is Stenotrophomonas maltophilia. Nature of the series: Antimicrobial activity against Stenotrophomonas maltophilia ATCC 17808 incubated for 16 to 20 hrs by CLSI based broth dilution method. The format is functional. Conditions: Stenotrophomonas maltophilia, ATCC 17808; time 16-20 hrs; read-out: MIC. For orientation: In broth dilution the organism is exposed to a series of concentrations in liquid medium.

The next series has as its system Enterococcus faecium. Nature of the series: Antimicrobial activity against Enterococcus faecium ATCC 29212 incubated for 16 to 20 hrs by CLSI based broth dilution method. The format is functional. The settings on record: Enterococcus faecium, ATCC 29212, time 16-20 hrs; read-out: MIC.
Series [2] concerns Staphylococcus aureus. The experiment in a line: Bactericidal activity against Staphylococcus aureus ATCC 29213 assessed as fold increase in MIC incubated for 16 to 20 hrs in presence of 50% plasma by broth dilution method relative to control. It is filed as functional. Conditions: time 16-20 hrs.
The subject of series [3] is Staphylococcus aureus. The experiment in a line: Bactericidal activity against Staphylococcus aureus ATCC 29213 assessed as fold increase in MIC incubated for 16 to 20 hrs in presence of 50% serum by broth dilution method relative to control. It is filed as functional. The settings on record: time 16-20 hrs.
Series [4] concerns Cell membrane. The experiment in a line: Induction of membrane depolarization in Staphylococcus aureus ATCC 29213 assessed as increase in fluorescence intensity at 16 ug/ml treated for 6 mins prior to compound addition and further measured for 20 mins by DiSC3-5 dye based fluorescence analysis. The settings on record: dose 16.0 µg/ml.
Series [5] concerns Staphylococcus aureus. Nature of the series: Induction of ROS accumulation in Staphylococcus aureus ATCC 29213 at 1 ug/ml incubated for 30 mins by DCF-DA staining based fluorescence analysis. The format is functional, organism-based. Conditions: dose 1.0 µg/ml.
For series [6], the system named is Staphylococcus aureus. Nature of the series: Induction of ROS accumulation in Staphylococcus aureus ATCC 29213 at 0.25 to 0.5 ug/ml incubated for 30 mins by DCF-DA staining based fluorescence analysis. The format is functional, organism-based. Conditions: dose 0.25-0.5 µg/ml.
Series [7] concerns Staphylococcus aureus. Nature of the series: Induction of ROS accumulation in Staphylococcus aureus ATCC 29213 at 1 ug/ml incubated for 30 mins in presence of N-acetyl-L-cysteine by DCF-DA staining based fluorescence analysis. The format is functional, organism-based. Conditions: dose 1.0 µg/ml.
The nature of series [8]: Cytotoxicity against HUVEC cells assessed as inhibition of cell growth incubated for 72 hrs by CCK-8 assay. It is filed as toxicity, cell-based. Conditions: human.
Series [9] in a line: Hemolytic activity in sheep erythrocytes incubated for 1 hr by absorbance based analysis. The format is toxicity, cell-based, Ovis aries, Erythrocyte. Conditions: sheep erythrocytes.
Series [10] concerns Staphylococcus aureus. Nature of the series: Antimicrobial activity against methicillin-resistant Staphylococcus aureus incubated for 16 to 20 hrs by broth microdilution method. The format is functional. The settings on record: time 16-20 hrs.
Another series concerns Escherichia coli. Nature of the series: Antimicrobial activity against Escherichia coli ATCC 25922 incubated for 16 to 20 hrs by CLSI based broth dilution method. It is filed as functional. Conditions: Escherichia coli, ATCC 25922; time 16-20 hrs; read-out: MIC.
Series [11] relates to Staphylococcus aureus. Nature of the series: Antimicrobial activity against Staphylococcus aureus ATCC 29213 incubated for 16 to 20 hrs by CLSI based broth dilution method. It is filed as functional. Conditions: Staphylococcus aureus, ATCC 29213; time 16-20 hrs; read-out: MIC.
Series [12] concerns Staphylococcus aureus. The experiment in a line: Antimicrobial activity against methicillin-resistant Staphylococcus aureus incubated for 16 to 20 hrs by CLSI based broth dilution method. It is filed as functional. Conditions: time 16-20 hrs.
Series [13] concerns Staphylococcus aureus. Nature of the series: Bactericidal activity against Staphylococcus aureus ATCC 29213 incubated for 16 to 20 hrs in presence of 50% plasma by broth dilution method. The format is functional, organism-based. Conditions: time 16-20 hrs.
The subject of series [14] is Staphylococcus aureus. Nature of the series: Bactericidal activity against Staphylococcus aureus ATCC 29213 assessed as remaining bacterial concentration at 8 ug/ml measured after 8 hrs. The format is functional. The settings on record: dose 8 µg/ml.
For series [15], the system named is Staphylococcus aureus. The experiment in a line: Bactericidal activity against Staphylococcus aureus ATCC 29213 assessed as reduction in bacterial growth at 8 ug/ml measured upto 24 hrs. Conditions: dose 8.0 µg/ml. The format is functional, organism-based.
Series [16] is described as follows: Induction of drug resistance in Staphylococcus aureus ATCC 29213 assessed as test compound MIC at sub-MIC measured after 20 days (reference value: 1 ug/ml). Conditions: ATCC 29213, 480 h, time 20 day. The format is functional.
In series [17] the test system is Cell membrane. The experiment in a line: Induction of membrane damage in Staphylococcus aureus ATCC 29213 assessed as shrunken bacterial cell surface at 8 ug/ml incubated for 6 hrs by scanning electron microscopic analysis. The format is subcellular. The settings on record: dose 8.0 µg/ml.
Series [18] has as its system Cell membrane. Nature of the series: Induction of membrane damage in Staphylococcus aureus ATCC 29213 assessed as sticky appearance of bacterial cells at 8 ug/ml incubated for 6 hrs by scanning electron microscopic analysis. The settings on record: dose 8.0 µg/ml. The format is subcellular.
The subject of series [19] is Cell membrane. The experiment in a line: Induction of membrane damage in Staphylococcus aureus ATCC 29213 assessed as change in membrane shape at 8 ug/ml incubated for 6 hrs by scanning electron microscopic analysis. The settings on record: dose 8.0 µg/ml.
The test system of series [20] is Cell membrane. The experiment in a line: Induction of membrane damage in Staphylococcus aureus ATCC 29213 assessed as membrane collapse with flowing contents at 8 ug/ml incubated for 6 hrs by scanning electron microscopic analysis. Conditions: dose 8.0 µg/ml. The format is subcellular.
Series [21] concerns Cell membrane. Nature of the series: Induction of membrane disruption in Staphylococcus aureus ATCC 29213 assessed as increase in red fluorescence at 8 ug/ml incubated for 30 mins by DAPI/PI staining based confocal microscopic analysis. It is filed as subcellular. Conditions: dose 8.0 µg/ml.
Series [22] has as its system Cell membrane. Nature of the series: Induction of membrane depolarization in Staphylococcus aureus ATCC 29213 assessed as increase in fluorescence intensity treated for 6 mins prior to compound addition and further measured for 20 mins by DiSC3-5 dye based fluorescence analysis. It is filed as subcellular. The settings on record: dose 16-64 µg/ml.
In series [23] the test system is Staphylococcus aureus. The experiment in a line: Antibacterial activity against Staphylococcus aureus ATCC 29213 assessed as fold increase in MIC incubated for 18 hrs in presence of phosphatidylethanolamine at 64 ug/ml incubated for 18 hrs by checkerboard dilution assay relative to control. It is filed as functional.
Series [24] relates to Staphylococcus aureus. Nature of the series: Antibacterial activity against Staphylococcus aureus ATCC 29213 assessed as fold increase in MIC incubated for 18 hrs in presence of phosphatidylglycerol incubated for 18 hrs by checkerboard dilution assay relative to control. It is filed as functional.
Series [25] deals with Staphylococcus aureus. Nature of the series: Antibacterial activity against Staphylococcus aureus ATCC 29213 assessed as increase in MIC incubated for 18 hrs in presence of cardiolipin incubated for 18 hrs by checkerboard dilution assay. The format is functional, organism-based.
The test system of series [26] is Cell membrane. Nature of the series: Induction of membrane disruption in Staphylococcus aureus ATCC 29213 assessed as nucleic acid leakage at 16 ug/ml incubated for 2 hrs by ultra-fine fluorescence spectrophotometry analysis. The settings on record: dose 16.0 µg/ml.
Series [27] concerns Staphylococcus aureus. Nature of the series: Induction of ROS accumulation in Staphylococcus aureus ATCC 29213 at 0.5 ug/ml incubated for 30 mins by DCF-DA staining based fluorescence analysis. The format is functional, organism-based. Conditions: dose 0.5 µg/ml.
In series [28] the test system is Staphylococcus aureus. Nature of the series: Antibacterial activity against Staphylococcus aureus ATCC 29213 assessed as inhibition of bacterial growth at 1 ug/ml incubated for 16 to 18 hrs in presence of genomic DNA at 0.125 to 4 ug/ml by microplate reader analysis. It is filed as functional, organism-based. Conditions: dose 1.0 µg/ml, time 16-18 hrs.
Series [29] in a line: Cytotoxicity against human BGC cells assessed as inhibition of cell growth incubated for 72 hrs by CCK-8 assay. It is filed as toxicity, cell-based.
Series [30] in a line: Cytotoxicity against human WPMY-1 cells assessed as inhibition of cell growth incubated for 72 hrs by CCK-8 assay. It is filed as toxicity, cell-based. (In general: Tetrazolium assays rely on reduction of a dye to a coloured formazan, in cell work by metabolically active cells.)
The subject of series [31] is Staphylococcus aureus. The experiment in a line: Antimicrobial activity against methicillin-resistant Staphylococcus aureus infected in Kunming female mouse assessed as reduction in bacterial load in skin at 5 mg/kg/day administered at labeled position and measured after 24 hrs relative to control. It is filed as functional. Set-up: scale not given: the % may be the effect or the level left.

Series [32] relates to Staphylococcus aureus. Nature of the series: Antimicrobial activity against methicillin-resistant Staphylococcus aureus infected in Kunming female mouse assessed as reduction in bacterial load in skin at 10 mg/kg/day administered at labeled position and measured after 24 hrs relative to control. It is filed as functional. Also noted: scale not given: the % may be the effect or the level left.

Series [33] concerns Staphylococcus aureus. The experiment in a line: Antimicrobial activity against methicillin-resistant Staphylococcus aureus infected in Kunming female mouse assessed as reduction in neutrophil levels in skin at 5 to 10 mg/kg/day administered at labeled position and measured after 24 hrs by H and E staining based analysis. The settings on record: dose 5-10 mg/kg/day. The format is functional, organism-based.

In series [34] the test system is Staphylococcus aureus. Nature of the series: Antimicrobial activity against methicillin-resistant Staphylococcus aureus infected in Kunming female mouse assessed as reduction in skin inflammation at 5 to 10 mg/kg/day administered at labeled position and measured after 24 hrs by H and E staining based analysis. The settings on record: dose 5-10 mg/kg/day. It is filed as functional, organism-based.

Turning to `CC[C@H](C)[C@H](NC(=O)CN)C(=O)NCC(=O)N[C@@H](C)C(=O)N[C@H](C(=O)N[C@@H](CC(C)C)C(=O)N[C@@H](CCCCN)C(=O)N[C@H](C(=O)N[C@@H](CC(C)C)C(=O)N[C@H](C(=O)N[C@H](C(=O)NCC(=O)N[C@@H](CC(C)C)C(=O)N1CCC[C@H]1C(=O)N[C@@H](C)C(=O)N[C@@H](CC(C)C)C(=O)N[C@H](C(=O)N[C@@H](CO)C(=O)N[C@@H](Cc1c[nH]c2ccccc12)C(=O)N[C@H](C(=O)N[C@@H](CCCCN)C(=O)N[C@@H](CCCNC(=N)N)C(=O)N[C@@H](CCCCN)C(=O)N[C@@H](CCCNC(=N)N)C(=O)N[C@@H](CCC(N)=O)C(=O)N[C@@H](CCC(N)=O)C(N)=O)[C@@H](C)CC)[C@@H](C)CC)[C@@H](C)O)[C@@H](C)O)C(C)C)C(C)C` [MELITTIN], the MIC came to 8 µg/mL (≈ 2.81 µM) in series [1] and 2 µg/mL (≈ 0.703 µM) in the series with Enterococcus faecium. Moreover, the “fold change (FC)” value with Staphylococcus aureus [2] and with Staphylococcus aureus [3] was over 32 in each case. Moreover, the result in the series on Cell membrane [4] and with Staphylococcus aureus [5] was Active. Moreover, the outcome with Staphylococcus aureus [6] and in the series on Staphylococcus aureus [7] was inactive. Further, in series [8], the IC50 at 72 h was 5.8 µg/mL (≈ 2.04 µM).
`CCCCCCCC[N+](C)(C)CCCCCOc1ccc(OCCCCC[N+](C)(C)CCCCCCCC)cc1.[Br-].[Br-]` came in with an HC50 at 1 h in series [9] of 1210 µg/mL. In the series with Staphylococcus aureus [10], this compound came in with an MIC of 0.25 µg/mL.
Take `CCCCCC[N+](C)(C)CCCOc1cccc(-c2cccc(OCCC[N+](C)(C)CCCCCC)c2)c1.[Br-].[Br-]`: the MIC stood at 16 µg/mL in series [1]; 16 µg/mL with Escherichia coli; 8 µg/mL in the series on Enterococcus faecium; 1 µg/mL in the series on Staphylococcus aureus [11]; 1 µg/mL in series [16]. This compound came in with an HC50 at 1 h in [9] of 905 µg/mL. In the series on Staphylococcus aureus [12], this compound gave an MIC90 of 1 µg/mL. Besides, the result in the series on Staphylococcus aureus [13], in the series with Staphylococcus aureus [15], in the series on Cell membrane [17], with Cell membrane [18], with Cell membrane [19] and with Cell membrane [20] was Active. Besides, the result with Cell membrane [21], with Staphylococcus aureus [25], with Cell membrane [26], with Staphylococcus aureus [27], with Staphylococcus aureus [28] and in the series on Staphylococcus aureus [33] was Active. In addition, the outcome in the series on Staphylococcus aureus [34] was Active. The Activity was <1 10^2CFU/ml with Staphylococcus aureus [14], “Dose-Dependent Effect” in the series with Cell membrane [22], 99.67% with Staphylococcus aureus [31] and 99.93% in the series on Staphylococcus aureus [32]. In addition, the “fold change (FC)” value is recorded as 2 in the series with Staphylococcus aureus [23] and 16 in the series on Staphylococcus aureus [24]. The outcome in the series on Staphylococcus aureus [5] and with Staphylococcus aureus [7] was inactive. The values for the IC50 at 72 h in series [29], in series [8] and in series [30] were 18.8 µg/mL, 24.6 µg/mL and 23.3 µg/mL, respectively.

The record behind these values is ChEMBL document CHEMBL5331085 (Eur J Med Chem, 2023).
